Tests used:
[1] = molecular target: T1, DNA topoisomerase I/type IB small subunit (Leishmania donovani, UniProt E9B7X3+E9BRC0); test: Stimultaneous Relaxation Assay; settings: pH 7.5
T1 sequence (E9B7X3 whole entry): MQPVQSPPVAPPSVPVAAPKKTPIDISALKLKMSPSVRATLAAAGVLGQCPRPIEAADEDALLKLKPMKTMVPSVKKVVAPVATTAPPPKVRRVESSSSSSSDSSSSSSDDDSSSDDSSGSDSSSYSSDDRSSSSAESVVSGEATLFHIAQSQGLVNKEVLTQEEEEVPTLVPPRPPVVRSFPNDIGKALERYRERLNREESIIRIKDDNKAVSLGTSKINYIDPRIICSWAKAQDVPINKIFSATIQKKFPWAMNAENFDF
T1 sequence (E9BRC0 whole entry): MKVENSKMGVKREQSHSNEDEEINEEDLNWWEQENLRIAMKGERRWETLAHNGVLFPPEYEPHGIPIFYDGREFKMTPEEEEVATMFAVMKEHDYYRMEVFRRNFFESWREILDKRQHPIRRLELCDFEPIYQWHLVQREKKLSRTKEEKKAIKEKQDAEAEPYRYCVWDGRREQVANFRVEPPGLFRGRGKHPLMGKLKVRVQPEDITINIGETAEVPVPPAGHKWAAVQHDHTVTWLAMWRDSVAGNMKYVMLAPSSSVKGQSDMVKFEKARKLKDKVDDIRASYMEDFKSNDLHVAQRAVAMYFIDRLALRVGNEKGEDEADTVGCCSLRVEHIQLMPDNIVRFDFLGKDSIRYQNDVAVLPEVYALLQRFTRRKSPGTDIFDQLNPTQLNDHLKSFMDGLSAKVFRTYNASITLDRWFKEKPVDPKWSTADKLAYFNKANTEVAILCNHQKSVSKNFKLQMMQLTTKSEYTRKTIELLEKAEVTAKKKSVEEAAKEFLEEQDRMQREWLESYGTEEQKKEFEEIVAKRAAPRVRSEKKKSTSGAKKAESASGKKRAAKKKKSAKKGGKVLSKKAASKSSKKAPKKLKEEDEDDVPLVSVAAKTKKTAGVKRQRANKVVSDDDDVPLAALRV
Procedure: (§1) In simultaneous relaxation assay, CPT concentrations were 50 and 100 μM, whereas concentration of compounds were 50, 100 and 200 μM. Relaxation assay was carried out as described previously with LdTOPILS serially diluted in the relaxation buffer (25mM Tris-HCl pH 7.5, 5% glycerol, 0.5mM DTT, 10mM MgCl2, 2.5mM EDTA and […]) supercoiled pBluescript (SK ) DNA and 50mM KCl. The amount of supercoiled monomer DNA band fluorescence after ethidium bromide (EtBr) ([…]) staining was quantitated by using GEL Doc 2000 from Biorad (Hercules, CA, USA).

[2] = molecular target: T1, DNA topoisomerase I/type IB small subunit; test: Preincubation Relaxation Assay; settings: pH 7.5
Procedure: as §1, with “In the preincubation” for “In simultaneous relaxation”, “whereas various concentrations” for “whereas concentration”, “were 25, 50 and” for “were 50,”, “100” for “100 and 200”, “μM. LdTOP1LS was preincubated with compounds 3a-d at different concentrations for 5 min at 37 °Cbefore the addition of substrate DNA.” for “μM.”

Row | Compound | IC50 [1] | IC50 [2]
1 | CN(C)c1ccc(C(C2=C(O)C(=O)c3ccccc3C2=O)C2=C(O)C(=O)c3ccccc3C2=O)cc1 [Bi-lawsone analog, 3b] | 37.5 µM | –
2 | O=C1C(O)=C(C(C2=C(O)C(=O)c3ccccc3C2=O)c2ccccc2)C(=O)c2ccccc21 [Bi-lawsone analog, 3a] | 51 µM | 16 µM
3 | COc1cc(C(C2=C(O)C(=O)c3ccccc3C2=O)C2=C(O)C(=O)c3ccccc3C2=O)ccc1O [Bi-lawsone analog, 3c] | – | 14 µM
4 | O=C1C(O)=C(C(C2=C(O)C(=O)c3ccccc3C2=O)c2ccc(O)cc2)C(=O)c2ccccc21 [Bi-lawsone analog, 3d] | 70 µM | 13 µM
